According to patent US20260306639A1, “DEGRADER FOR DECOMPOSING CMET PROTEIN, AND PHARMACEUTICAL COMPOSITION COMPRISING SAME” (INNOCURE THERAPEUTICS, INC., priority 2022, published 2026):

Each compound was assayed on c-MET (assay: c-MET protein degradation (Simple Western), MKN-45 cells). Settings: MKN-45 gastric cancer cells, c-MET overexpressing; 24 hours.
Format: cell-based, human
Method: In order to assess the resolution of the compound of the present invention for c-MET expressed in cells, cells were dispensed in a 12-well plate at a concentration of 2×10^5 cells/well, and then gastric cancer cell lines were treated with samples for 24 hours and lung cancer cell lines were treated for 48 hours. Cell lysates were collected using a scraper on ice, centrifuged at 4° C. 15,000 rpm for 30 min to obtain a protein-containing supernatant. Protein expression was then measured using the Simple Western Automated Western Blot System Abby instrument using 3 μg of protein for each sample. SDS and heat-induced denaturation proteins were separated by molecular weight, attached to capillary, reacted with anti-c-MET or anti-GAPDH antibodies, which are primary antibodies, and then reacted with HRP-conjugated secondary antibodies, and analyzed the protein expression signal with compass software. Protein expression was normalized based on the expression value of GAPDH, and protein development in each sample was measured as a percentage (%) based on 100% of samples treated with 0.1% DMSO carriers, and DC50 (concentration of a compound where 50% protein inhibition is achieved) was calculated from the change in protein expression amount due to compound treatment.
Work on `Cn1cc(-c2cnc3c(nnn3C[C@@H]3CN(c4ncc(-c5ccc(CN6CCN(C(=O)CCCCNc7cccc8cnn(C9CCC(=O)NC9=O)c(=O)c78)CC6)cc5)cn4)CCO3)n2)cn1` (stereo partly drawn) [ICT-0000959, 3-{8-[(5-{4-[(4-{2-[(2S)-2-{[5-(1-methyl-1H-pyrazole-4-yl)-1H-[1,2,3]triazolo[4,5-b]pyrazine-1-yl]methyl}morpholine-4-il]pyrimidine-5-yl}phenyl)methyl]piperazine-1-yl}-5-oxopentyl)amino]-1-oxo-1,2-dihydropthalazine-2-yl}piperidine-2,6-dione] yielded a DC50 of under 100 nM. Compound `N#Cc1cccc(-c2ccc(=O)n(Cc3cccc(-c4ncc(OCC5CCN(CCCCC(=O)N6CCN(c7ccc8c(=O)n(C9CCC(=O)NC9=O)ncc8c7)CC6)CC5)cn4)c3)n2)c1` (stereo not shown) [ICT-0001252] has a DC50 of under 100 nM. With `Cc1nn(C2CCC(=O)NC2=O)c(=O)c2ccc(NCCOCCOCC(=O)N3CCC(COc4cnc(-c5cccc(Cn6nc(-c7cccc(C#N)c7)ccc6=O)c5)nc4)CC3)cc12` (stereo not shown) [ICT-0001087] the DC50 was under 100 nM. `Cc1nn(C2CCC(=O)NC2=O)c(=O)c2ccc(N3CCN(CC4CN(C(=O)CN5CCC(COc6cnc(-c7cccc(Cn8nc(-c9cccc(C#N)c9)ccc8=O)c7)nc6)CC5)C4)CC3)cc12` (stereo not shown) [ICT-0001235] showed a DC50 of under 100 nM. With `Cc1nn(C2CCC(=O)NC2=O)c(=O)c2ccc(N3CCN(CC4CCN(CC(=O)N5CCC(COc6cnc(-c7cccc(Cn8nc(-c9cccc(C#N)c9)ccc8=O)c7)nc6)CC5)CC4)CC3)cc12` (stereo not shown) [ICT-0001256] the DC50 was under 100 nM. For `Cn1cc(-c2cnc3c(nnn3CC3CN(c4ncc(-c5ccc(CN6CCN(C(=O)CCCNc7cccc8cnn(C9CCC(=O)NC9=O)c(=O)c78)CC6)cc5)cn4)CCO3)n2)cn1` [ICT-0000969, 3-(8-((4-(4-(4-(4-(2-((S)-2-((5-(1-methyl-1H-pyrazole-4-yl)-1H-[1,2,3]triazolo[4,5-b]pyrazine-1-yl)methyl)morpholino)pyrimidine-5-yl)benzyl)piperazine-1-yl)4-oxobutyl)amino)1-oxopthalazine-2(1H)-yl)piperidine-2,6-dione], the DC50 was under 100 nM. Compound `Cc1nn(C2CCC(=O)NC2=O)c(=O)c2ccc(N3CCN(CCCC(=O)N4CCC(COc5cnc(-c6cccc(Cn7nc(-c8cccc(C#N)c8)ccc7=O)c6)nc5)CC4)CC3)cc12` (stereo not shown) [ICT-0001175, 3-(1-(3-(5-((1-(4-(4-(2-(2,6-dioxopiperidine-3-yl)-4-methyl-1-oxo-1,2-dihydropthalazine-6-yl)piperazine-1-yl)butanoyl)piperidine-4-il)methoxy)pyrimidine-2-yl)benzyl)6-oxo-1,6-dihydropyridazine-3-yl)benzonitrile] has a DC50 of under 100 nM. For `Cc1nn(C2CCC(=O)NC2=O)c(=O)c2ccc(N3CCN(CCC(=O)N4CCC(COc5cnc(-c6cccc(Cn7nc(-c8cccc(C#N)c8)ccc7=O)c6)nc5)CC4)CC3)cc12` (stereo not shown) [ICT-0001174], the DC50 was under 100 nM. In the case of `Cc1nn(C2CCC(=O)NC2=O)c(=O)c2cc(N3CCN(C(=O)CCCN4CCC(COc5cnc(-c6cccc(Cn7nc(-c8cccc(C#N)c8)ccc7=O)c6)nc5)CC4)CC3)ccc12` (stereo not shown) [ICT-0001228], the DC50 is reported as under 100 nM. `N#Cc1cccc(-c2ccc(=O)n(Cc3cccc(-c4ncc(OCC5CCN(C(=O)CCCCN6CCN(c7ccc8c(=O)n(C9CCC(=O)NC9=O)ncc8c7)CC6)CC5)cn4)c3)n2)c1` (stereo not shown) [ICT-0001201, 3-(1-{[3-(5-{[1-(5-{4-[2-(2,6-dioxopiperidin-3-yl)-1-oxo-1,2-dihydropetalazine-6-yl]piperazine-1-yl}pentanoyl)piperidine-4-il]methoxy}pyrimidine-2-yl)phenyl]methyl}6-oxo-1,6-dihydropyridazine-3-yl)benzonitrile] gave a DC50 of under 100 nM. Compound `Cc1nn(C2CCC(=O)NC2=O)c(=O)c2cc(N3CCC(CN4CCN(C(=O)CN5CCC(COc6cnc(-c7cccc(Cn8nc(-c9cccc(C#N)c9)ccc8=O)c7)nc6)CC5)CC4)CC3)ccc12` (stereo not shown) [ICT-0001234] has a DC50 of over 1000 nM. Compound `Cc1nn(C2CCC(=O)NC2=O)c(=O)c2cc(N3CCN(c4ccc(NCC(=O)N5CCC(COc6cnc(-c7cccc(Cn8nc(-c9cccc(C#N)c9)ccc8=O)c7)nc6)CC5)cc4)CC3)ccc12` (stereo not shown) [ICT-0001262, 3-(1-(3-(5-((1-((4-(4-(3-(2,6-dioxopiperidin-3-yl)-1-methyl-4-oxo-3,4-dihydropthalazine-6-yl)piperazine-1-yl)phenyl)glycy)piperidine-4-il)methoxy)pyrimidine-2-yl)benzyl)6-oxo-1,6-dihydropyridazine-3-yl)benzonitrile] has a DC50 of under 100 nM. For `Cc1nn(C2CCC(=O)NC2=O)c(=O)c2ccc(N3CCN(C4CCN(CC(=O)N5CCC(COc6cnc(-c7cccc(Cn8nc(-c9cccc(C#N)c9)ccc8=O)c7)nc6)CC5)CC4)CC3)cc12` (stereo not shown) [ICT-0001255], the DC50 was under 100 nM. `Cc1nn(C2CCC(=O)NC2=O)c(=O)c2c(NCC(=O)N3CCC(COc4cnc(-c5cccc(Cn6nc(-c7cccc(C#N)c7)ccc6=O)c5)nc4)CC3)cccc12` (stereo not shown) [ICT-0000981] showed a DC50 of over 1000 nM. For `Cc1nn(C2CCC(=O)NC2=O)c(=O)c2cc(N3CCN(CC4CCN(C(=O)CN5CCC(COc6cnc(-c7cccc(Cn8nc(-c9cccc(C#N)c9)ccc8=O)c7)nc6)CC5)CC4)CC3)ccc12` (stereo not shown) [ICT-0001195], the DC50 was under 100 nM. `N#Cc1cccc(-c2ccc(=O)n(Cc3cccc(-c4ncc(OCC5CCN(CC(=O)N6CCN(c7ccc8c(=O)n(C9CCC(=O)NC9=O)ncc8c7)CC6)CC5)cn4)c3)n2)c1` (stereo not shown) [ICT-0001221] gave a DC50 of under 100 nM. Work on `N#Cc1cccc(-c2ccc(=O)n(Cc3cccc(-c4ncc(OCC5CCN(CC(=O)NCCCCCc6ccc7c(=O)n(C8CCC(=O)NC8=O)ncc7c6)CC5)cn4)c3)n2)c1` (stereo not shown) [ICT-0001206] yielded a DC50 of under 100 nM. For `Cc1nn(C2CCC(=O)NC2=O)c(=O)c2ccc(N3CCN(C(=O)CCCCN4CCC(COc5cnc(-c6cccc(Cn7nc(-c8cccc(C#N)c8)ccc7=O)c6)nc5)CC4)CC3)cc12` (stereo not shown) [ICT-0001250], the DC50 was 100 to 1000 nM. Work on `Cc1nn(C2CCC(=O)NC2=O)c(=O)c2cc(N3CCC(CN4CCN(CC(=O)N5CCC(COc6cnc(-c7cccc(Cn8nc(-c9cccc(C#N)c9)ccc8=O)c7)nc6)CC5)CC4)CC3)ccc12` (stereo not shown) [ICT-0001239] yielded a DC50 of under 100 nM. Compound `Cc1nn(C2CCC(=O)NC2=O)c(=O)c2ccc(NCCCC(=O)N3CCC(COc4cnc(-c5cccc(Cn6nc(-c7cccc(C#N)c7)ccc6=O)c5)nc4)CC3)cc12` (stereo not shown) [ICT-0000989] has a DC50 of 100 to 1000 nM. In the case of `Cn1cc(-c2cnc3c(nnn3C[C@@H]3CN(c4ncc(-c5ccc(CN6CCN(C(=O)CN7CCN(c8ccc9c(=O)n(C%10CCC(=O)NC%10=O)ncc9c8)CC7)CC6)cc5)cn4)CCO3)n2)cn1` (stereo partly shown) [ICT-0001109], the DC50 is reported as under 100 nM. `Cc1nn(C2CCC(=O)NC2=O)c(=O)c2cc(N3CCC(N4CCN(CC(=O)N5CCC(COc6cnc(-c7cccc(Cn8nc(-c9cccc(C#N)c9)ccc8=O)c7)nc6)CC5)CC4)CC3)ccc12` (stereo not shown) [ICT-0001270] gave a DC50 of under 100 nM. In the case of `Cc1nn(C2CCC(=O)NC2=O)c(=O)c2cc(N3CCN(CCCCC(=O)N4CCC(COc5cnc(-c6cccc(Cn7nc(-c8cccc(C#N)c8)ccc7=O)c6)nc5)CC4)CC3)ccc12` (stereo not shown) [ICT-0001217], the DC50 is reported as under 100 nM. In the case of `Cc1nn(C2CCC(=O)NC2=O)c(=O)c2ccc(N3CCC(CN4CCN(CC(=O)N5CCC(COc6cnc(-c7cccc(Cn8nc(-c9cccc(C#N)c9)ccc8=O)c7)nc6)CC5)CC4)CC3)cc12` (stereo not shown) [ICT-0001213], the DC50 is reported as under 100 nM. `Cc1nn(C2CCC(=O)NC2=O)c(=O)c2ccc(N3CCN(C(=O)CCN4CCC(COc5cnc(-c6cccc(Cn7nc(-c8cccc(C#N)c8)ccc7=O)c6)nc5)CC4)CC3)cc12` (stereo not shown) [ICT-0001224] gave a DC50 of under 100 nM.
